The results in this text go back to patent US10040781B2, “Tank-binding kinase inhibitor compounds” (Gilead Sciences, Inc., priority 2014, dated 2018).

Test [1] has as its target TBK1 (Homo sapiens (Human), UniProt Q9UHD2). Put plainly: TBK1 TR-FRET enzymatic assay.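 Further: phosphorylation of a biotinylated Ser/Thr peptide by purified full-length recombinant TBK1, read by TR-FRET after 240 min at 25 °C, IC50 is the geometric mean of at least four runs.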 A general note: TR-FRET usually uses a lanthanide donor and a delayed reading to cut background.
Protocol: Enzymatic activity of IKKε and TBK1 was measured using a homogeneous time resolved fluorescence resonance energy transfer (TR-FRET) assay that monitors enzyme dependent phosphorylation of a biotinylated serine/threonine peptide substrate. […] TBK1 and IKKε were expressed and purified as full length recombinant proteins. Detection reagents for the assay were purchased from Cisbio. […] After an assay reaction time of 240 minutes at 25° C., reactions were terminated with EDTA.
All IC50 values represent geometric mean values of a minimum of four determinations.
In test [2] the target is hJAK2 (Homo sapiens (Human), UniProt O60674). The test can be described thus: hJAK2 LANCE TR-FRET enzymatic assay. The following applies: read-out: JAK2 IC50. Type of test: biochemical.
Test [3] has as its target IKKε (Homo sapiens (Human), UniProt Q14164). Put plainly: IKKε TR-FRET enzymatic assay. The class given is biochemical. As to conditions: read-out: IKKe IC50.
Where [4] appears, read: TR-FRET, 2×Km ATP, geometric mean of minimum four determinations.

Like-named read-outs stand apart in the source and are kept apart here. Some results are limits rather than exact numbers.

TBK1, sequence (Q9UHD2 whole entry): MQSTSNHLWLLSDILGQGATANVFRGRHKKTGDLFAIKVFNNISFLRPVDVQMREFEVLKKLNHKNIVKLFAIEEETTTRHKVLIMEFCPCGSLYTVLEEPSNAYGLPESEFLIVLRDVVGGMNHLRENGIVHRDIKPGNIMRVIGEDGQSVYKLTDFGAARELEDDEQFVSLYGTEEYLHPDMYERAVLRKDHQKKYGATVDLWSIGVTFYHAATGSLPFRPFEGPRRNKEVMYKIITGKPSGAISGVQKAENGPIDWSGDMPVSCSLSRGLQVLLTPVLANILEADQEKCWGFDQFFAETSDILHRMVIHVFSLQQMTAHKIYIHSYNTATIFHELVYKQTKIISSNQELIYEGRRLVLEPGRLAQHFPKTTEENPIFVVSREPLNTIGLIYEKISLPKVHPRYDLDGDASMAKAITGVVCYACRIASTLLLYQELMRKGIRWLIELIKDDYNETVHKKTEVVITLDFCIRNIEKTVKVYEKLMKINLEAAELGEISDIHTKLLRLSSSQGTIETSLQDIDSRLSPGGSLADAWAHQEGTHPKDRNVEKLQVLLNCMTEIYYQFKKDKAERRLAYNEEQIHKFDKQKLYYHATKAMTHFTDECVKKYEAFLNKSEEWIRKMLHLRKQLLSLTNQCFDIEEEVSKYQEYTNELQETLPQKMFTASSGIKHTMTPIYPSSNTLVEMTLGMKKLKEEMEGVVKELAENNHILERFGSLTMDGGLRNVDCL
IKKε, sequence (Q14164 whole entry): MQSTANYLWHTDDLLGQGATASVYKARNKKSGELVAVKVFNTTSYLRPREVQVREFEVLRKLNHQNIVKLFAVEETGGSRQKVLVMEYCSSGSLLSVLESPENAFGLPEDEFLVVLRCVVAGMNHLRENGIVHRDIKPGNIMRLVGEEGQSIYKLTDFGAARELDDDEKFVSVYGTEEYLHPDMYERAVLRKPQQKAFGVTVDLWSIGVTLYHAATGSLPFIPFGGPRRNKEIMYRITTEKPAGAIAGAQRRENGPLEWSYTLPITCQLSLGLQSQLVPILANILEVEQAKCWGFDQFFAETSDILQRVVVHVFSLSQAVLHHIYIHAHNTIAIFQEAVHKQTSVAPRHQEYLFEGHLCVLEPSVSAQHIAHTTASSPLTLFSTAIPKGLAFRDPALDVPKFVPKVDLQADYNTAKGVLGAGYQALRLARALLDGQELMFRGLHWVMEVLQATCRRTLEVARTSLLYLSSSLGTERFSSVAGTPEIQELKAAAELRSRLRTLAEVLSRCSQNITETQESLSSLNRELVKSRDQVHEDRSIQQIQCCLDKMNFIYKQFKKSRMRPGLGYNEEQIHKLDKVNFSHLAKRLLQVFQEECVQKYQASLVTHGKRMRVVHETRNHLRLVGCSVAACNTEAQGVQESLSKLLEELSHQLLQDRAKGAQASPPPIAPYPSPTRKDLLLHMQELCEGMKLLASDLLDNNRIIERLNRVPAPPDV
hJAK2, sequence (O60674 whole entry): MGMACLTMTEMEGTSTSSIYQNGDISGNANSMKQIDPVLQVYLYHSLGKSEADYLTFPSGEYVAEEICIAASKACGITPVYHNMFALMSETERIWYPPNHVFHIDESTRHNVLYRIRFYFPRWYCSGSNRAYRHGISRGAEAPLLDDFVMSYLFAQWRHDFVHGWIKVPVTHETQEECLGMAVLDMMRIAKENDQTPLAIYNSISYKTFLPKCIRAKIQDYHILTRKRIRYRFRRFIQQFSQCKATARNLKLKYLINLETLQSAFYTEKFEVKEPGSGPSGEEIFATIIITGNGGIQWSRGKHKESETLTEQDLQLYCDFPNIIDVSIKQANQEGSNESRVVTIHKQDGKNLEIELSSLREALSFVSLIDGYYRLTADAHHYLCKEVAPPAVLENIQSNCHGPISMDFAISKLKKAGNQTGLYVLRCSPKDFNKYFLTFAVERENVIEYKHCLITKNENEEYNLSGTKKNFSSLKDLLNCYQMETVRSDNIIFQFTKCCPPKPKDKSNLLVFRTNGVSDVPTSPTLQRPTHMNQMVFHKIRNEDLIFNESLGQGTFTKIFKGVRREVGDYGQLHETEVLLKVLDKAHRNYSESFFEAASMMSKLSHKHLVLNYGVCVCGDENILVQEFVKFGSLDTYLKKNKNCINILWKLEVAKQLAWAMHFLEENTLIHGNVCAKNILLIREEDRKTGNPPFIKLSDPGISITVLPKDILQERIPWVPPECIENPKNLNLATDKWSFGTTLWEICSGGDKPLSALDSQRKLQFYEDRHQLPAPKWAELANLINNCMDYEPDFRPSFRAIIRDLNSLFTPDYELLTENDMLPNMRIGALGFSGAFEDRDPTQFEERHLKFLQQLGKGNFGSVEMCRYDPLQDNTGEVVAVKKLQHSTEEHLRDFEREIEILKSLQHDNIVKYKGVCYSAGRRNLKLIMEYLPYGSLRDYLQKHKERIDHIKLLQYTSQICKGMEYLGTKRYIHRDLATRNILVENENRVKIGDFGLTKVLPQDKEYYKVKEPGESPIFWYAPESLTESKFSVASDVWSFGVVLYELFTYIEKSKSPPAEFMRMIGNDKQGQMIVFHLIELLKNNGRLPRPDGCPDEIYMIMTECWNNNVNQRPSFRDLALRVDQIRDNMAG

In the case of `N#Cc1cc(-c2ncnc(Nc3ccc(N4CCN(C5COC5)CC4)cc3)n2)ccc1O[C@H]1CCN(C(=O)c2cnc(N)[nH]2)C[C@H]1F` [Example 559, 2-(((3R,4S)-1-(2-amino-1H-imidazole-5-carbonyl)-3-fluoropiperidin-4-yl)oxy)-5-(4-((4-(4-(oxetan-3-yl)piperazin-1-yl)phenyl)amino)-1,3,5-triazin-2-yl)benzonitrile], the IC50 amounted to 5 nM in test [1], 83 nM in test [2] and 2 nM in test [3] (setting [4]).
Turning to `N#Cc1cc(-c2ncnc(Nc3ccc(N4CCN(C5COC5)CC4)nc3)n2)ccc1OC1CCOCC1` [Example 43, 5-(4-((6-(4-(oxetan-3-yl)piperazin-1-yl)pyridin-3-yl)amino)-1,3,5-triazin-2-yl)-2-((tetrahydro-2H-pyran-4-yl)oxy)benzonitrile], the values for the IC50 in test [1], in test [2] and in test [3] were 7 nM, above 1000 nM and 15 nM, respectively.
As for `C[C@@H](Oc1ccc(-c2ncnc(Nc3ccc(N4CCN(C5COC5)CC4)cc3)n2)cc1C#N)C1CCOCC1` [Example 283, (R)-5-(4-((4-(4-(oxetan-3-yl)piperazin-1-yl)phenyl)amino)-1,3,5-triazin-2-yl)-2-(1-(tetrahydro-2H-pyran-4-yl)ethoxy)benzonitrile], the values for the IC50 in test [1], in test [2] and in test [3] were 22 nM, 450 nM and 115 nM, respectively.
On the same counts, the results for `N#Cc1cc(-c2ncnc(Nc3ccc(N4CCN(C5COC5)CC4)cc3)n2)ccc1OC1CN(C(=O)CO)CC1(F)F` (stereo not drawn) [Example 98, 2-((4,4-difluoro-1-(2-hydroxyacetyl)pyrrolidin-3-yl)oxy)-5-(4-((4-(4-(oxetan-3-yl)piperazin-1-yl)phenyl)amino)-1,3,5-triazin-2-yl)benzonitrile] are 5 nM, 119 nM and 14 nM.
In the case of `N#Cc1cc(-c2ncnc(Nc3ccc(N4CCN(C5COC5)CC4)cc3)n2)ccc1N1CCCC1=O` [Example 28, 5-[4-[4-[4-(oxetan-3-yl)piperazin-1-yl]anilino]-1,3,5-triazin-2-yl]-2-(2-oxopyrrolidin-1-yl)benzonitrile], the IC50 in test [1] is 225 nM; in test [2], 583 nM; in test [3], 529 nM.
As to `N#Cc1cc(-c2ncnc(Nc3ccc(N4CCN(C5COC5)CC4)cc3)n2)ccc1O[C@H]1CCN(C(=O)[C@@H]2C[C@H](O)CN2)C[C@H]1F` [Example 588, 2-(((3R,4S)-3-fluoro-1-((2S,4S)-4-hydroxypyrrolidine-2-carbonyl)piperidin-4-yl)oxy)-5-(4-((4-(4-(oxetan-3-yl)piperazin-1-yl)phenyl)amino)-1,3,5-triazin-2-yl)benzonitrile], the IC50 is 18 nM in test [1], at least 1000 nM in test [2] and 49 nM in test [3] (setting [4]).
`Cc1nnc(C(=O)N2CC[C@H](Oc3ccc(-c4ncnc(Nc5cnn(C(C)(C)C)c5)n4)cc3C#N)[C@H](F)C2)[nH]1` [Example 418, 5-(4-((1-(tert-butyl)-1H-pyrazol-4-yl)amino)-1,3,5-triazin-2-yl)-2-(((3R,4S)-3-fluoro-1-(5-methyl-4H-1,2,4-triazole-3-carbonyl)piperidin-4-yl)oxy)benzonitrile]: the results for the IC50 in test [1], in test [2] and in test [3] (setting [4]) were 4 nM, 212 nM and 2 nM, respectively.
For the compound `Cc1cc(Nc2ncnc(-c3ccc(O[C@H]4CCN(C(=O)CO)C[C@H]4F)c(C#N)c3)n2)ccc1N1CCN(C2COC2)CC1` [Example 394, 2-(((3R,4S)-3-fluoro-1-(2-hydroxyacetyl)piperidin-4-yl)oxy)-5-(4-((3-methyl-4-(4-(oxetan-3-yl)piperazin-1-yl)phenyl)amino)-1,3,5-triazin-2-yl)benzonitrile], the figures for the IC50 in test [1], in test [2] and in test [3] were 2 nM, 64 nM and 1 nM, respectively.
Regarding `COc1cc(Nc2ncnc(-c3ccc(O[C@H]4CCN(C(=O)[C@H](C)O)C[C@H]4F)c(C#N)c3)n2)ccc1N1CCC(N2CCOCC2)CC1` [Example 326, 2-(((3R,4S)-3-fluoro-1-((S)-2-hydroxypropanoyl)piperidin-4-yl)oxy)-5-(4-((3-methoxy-4-(4-morpholinopiperidin-1-yl)phenyl)amino)-1,3,5-triazin-2-yl)benzonitrile], the IC50 was 2 nM in test [1], 72 nM in test [2] and 1 nM in test [3].
On to `N#Cc1cc(-c2ncnc(Nc3ccc(N4CCN(C5COC5)CC4)cc3)n2)ccc1OC1CCN(C(=O)C2(O)CC2)CC1` [Example 70, 2-((1-(1-hydroxycyclopropanecarbonyl)piperidin-4-yl)oxy)-5-(4-((4-(4-(oxetan-3-yl)piperazin-1-yl)phenyl)amino)-1,3,5-triazin-2-yl)benzonitrile], for which the IC50 in test [1] amounted to 28 nM; in test [2], 918 nM; in test [3], 70 nM.
In the case of `N#Cc1cc(-c2ncnc(Nc3ccc(N4CCN(C5COC5)CC4)cc3)n2)ccc1O[C@H]1CCN(C(=O)C2CNC(=O)N2)C[C@H]1F` (stereo partly drawn) [Example 414, 2-(((3R,4S)-3-fluoro-1-(2-oxoimidazolidine-4-carbonyl)piperidin-4-yl)oxy)-5-(4-((4-(4-(oxetan-3-yl)piperazin-1-yl)phenyl)amino)-1,3,5-triazin-2-yl)benzonitrile], the IC50 in test [1] was found to be 3 nM; in test [2], 163 nM; in test [3] (setting [4]) it was 3 nM.
On to `C[C@H](O)C(=O)N1CC[C@H](Oc2ccc(-c3ncnc(Nc4ccc(N5CCOC(C(N)=O)C5)cc4)n3)cc2C#N)[C@H](F)C1` (stereo partly drawn) [Example 314, 4-(4-((4-(3-cyano-4-(((3R,4S)-3-fluoro-1-((S)-2-hydroxypropanoyl)piperidin-4-yl)oxy)phenyl)-1,3,5-triazin-2-yl)amino)phenyl)morpholine-2-carboxamide], for which the IC50 was found to be 3 nM in test [1], 609 nM in test [2] and 1 nM in test [3].
With `C[C@H](O)C(=O)N1CC[C@H](Oc2ccc(-c3ncnc(Nc4ccnc(C(C)(C)O)c4)n3)cc2C#N)[C@H](F)C1` [Example 386, 2-(((3R,4S)-3-fluoro-1-((S)-2-hydroxypropanoyl)piperidin-4-yl)oxy)-5-(4-((2-(2-hydroxypropan-2-yl)pyridin-4-yl)amino)-1,3,5-triazin-2-yl)benzonitrile], the IC50 is 4 nM in test [1], at least 1000 nM in test [2] and 6 nM in test [3].
In the case of `N#Cc1cc(-c2ncnc(Nc3ccc(N4CCN(C5COC5)CC4)cc3)n2)ccc1O[C@H]1CCN(C(=O)c2coc(=O)[nH]2)C[C@H]1F` [Example 525, 2-(((3R,4S)-3-fluoro-1-(2-oxo-2,3-dihydrooxazole-4-carbonyl)piperidin-4-yl)oxy)-5-(4-((4-(4-(oxetan-3-yl)piperazin-1-yl)phenyl)amino)-1,3,5-triazin-2-yl)benzonitrile], the IC50 in test [1] came out at 3 nM; in test [2] it was 390 nM; in test [3] (setting [4]), 3 nM.
Regarding `N#Cc1cc(-c2ncnc(Nc3ccc(N4CCN(C5COC5)CC4)cc3)n2)ccc1OC1CCCOC1` (stereo not drawn) [Example 34, 5-(4-((4-(4-(oxetan-3-yl)piperazin-1-yl)phenyl)amino)-1,3,5-triazin-2-yl)-2-((tetrahydro-2H-pyran-3-yl)oxy)benzonitrile], the IC50 was 12 nM in test [1], above 1000 nM in test [2] and 45 nM in test [3].
With `CC1(COc2ccc(-c3ncnc(Nc4ccc(N5CCN(C6COC6)CC5)cc4)n3)cc2C#N)COC1` [Example 6, 2-((3-methyloxetan-3-yl)methoxy)-5-(4-((4-(4-(oxetan-3-yl)piperazin-1-yl)phenyl)amino)-1,3,5-triazin-2-yl)benzonitrile], the IC50 amounted to 7 nM in test [1], 178 nM in test [2] and 20 nM in test [3].
Consider `C[C@H](O)C(=O)N1CC[C@H](COc2cc(C#N)cc(-c3ncnc(Nc4ccc(N5CCN(C6COC6)CC5)cc4)n3)c2)C1` [Example 590, 3-(((S)-1-((S)-2-hydroxypropanoyl)pyrrolidin-3-yl)methoxy)-5-(4-((4-(4-(oxetan-3-yl)piperazin-1-yl)phenyl)amino)-1,3,5-triazin-2-yl)benzonitrile], for which the results for the IC50 in test [1], in test [2] and in test [3] (setting [4]) were 528 nM, at least 1000 nM and at least 1000 nM, respectively.
Take `N#Cc1cc(-c2ncnc(Nc3ccc(N4CCN(C5COC5)CC4)cc3)n2)ccc1O[C@H]1CCN(C(=O)C(F)F)C[C@H]1F` [Example 288, 2-(((3R,4S)-1-(2,2-difluoroacetyl)-3-fluoropiperidin-4-yl)oxy)-5-(4-((4-(4-(oxetan-3-yl)piperazin-1-yl)phenyl)amino)-1,3,5-triazin-2-yl)benzonitrile]: the IC50 in test [1] came to 3 nM; in test [2] it was 316 nM; in test [3], 2 nM.
As to `N#Cc1cc(-c2ncnc(Nc3ccc(N4CCN(C5COC5)CC4)cc3)n2)ccc1OC1CCN(C(=O)CO)CC1` [Example 16, 2-((1-(2-hydroxyacetyl)piperidin-4-yl)oxy)-5-(4-((4-(4-(oxetan-3-yl)piperazin-1-yl)phenyl)amino)-1,3,5-triazin-2-yl)benzonitrile], the IC50 came to 1 nM in test [1], 603 nM in test [2] and 4 nM in test [3].
Consider `COc1cc(Nc2ncnc(-c3ccc(OC4CCOCC4)c(C#N)c3)n2)cc(OC)c1OC` [Example 24, 2-((tetrahydro-2H-pyran-4-yl)oxy)-5-(4-((3,4,5-trimethoxyphenyl)amino)-1,3,5-triazin-2-yl)benzonitrile], for which the IC50 in test [1] stood at 1 nM; in test [2], 602 nM; in test [3], 2 nM.
For the compound `N#Cc1cc(-c2ncnc(Nc3ccc(N4CCN(C5COC5)CC4)cc3)n2)ccc1O[C@H]1CCN(C(=O)c2ccn[nH]2)C[C@H]1F` [Example 145, 2-(((3R,4S)-3-fluoro-1-(1H-pyrazole-5-carbonyl)piperidin-4-yl)oxy)-5-(4-((4-(4-(oxetan-3-yl)piperazin-1-yl)phenyl)amino)-1,3,5-triazin-2-yl)benzonitrile], the IC50 in test [1] was 2 nM; in test [2], 219 nM; in test [3], 1 nM.

Broadly, the IC50 is the point on the concentration scale where inhibition reaches its midpoint.
